The values below come from patent US10933126B2, “Clostridium difficile immunogenic compositions and methods of use” (The Board of Regents of the University of Oklahoma, priority 2018, dated 2021).

Test [1] deals with C. difficile VPI 10463 spores. The experiment in a line: C. difficile spore challenge assay in immunized B6 mice (body weight). The format is in vivo. The settings on record: 10^4 spores. The protocol: Non-immunized age- and sex-matched naïve B6 mice were Cefoperazone-treated and then treated with vehicle only (a) or were infected with 10^4 live C. difficile spores (b). Some mice were administered PSII alone followed by a PSII booster one week later (c), or administered vehicle only followed by the PSII booster one week later (d), or administered α-GC alone followed by the PSII booster (e), or administered a PSII and α-GC combination followed by the PSII booster (f), or administered α-GC alone followed by vehicle (g). Animals were then treated with the antibiotic Cefoperazone prior to being infected with 10^4 live C. difficile spores. Graphs show the percent of original weight, which was obtained daily and for the duration indicated. Five mice were used for each group except for the naïve-infected and the PSII/α-GC groups (n=10). […] In the uninfected control group (a), zero counts were detected (limit of detection in assay=10^2).
Immunizations: Mice were immunized s.c. in both flanks with a total of 15 μg or 50 μg PSII or PSII plus 4 μg α-GC, in a 200 μl total volume of sterile low-endotoxin PBS. The amount of α-GC administered has been determined in previous studies to exert a strong CD1d- and NKT-dependent effect on Ab responses. […]
Animal weight was then measured daily. […]

For another test, the system named is PSII. Further details: species or system B6 mice. Conditions: mouse, in vivo.

On to `CCCCCCCCCCCCCCCCCCCCCCCCCC(=O)N[C@@H](CO[C@H]1O[C@H](CO)[C@H](O)[C@H](O)[C@H]1O)[C@H](O)[C@H](O)CCCCCCCCCCCCCC` [α-GC, (2S,3S,4R)-1-O-(α-D-Galactosyl)-N-hexacosanoyl-2-amino-1,3,4-octadecanetriol], for which the “Body weight after C. difficile challenge” value in test [1] (α-GC alone, w/o a PSII booster (FIG. 6g)) was “did not protect against weight loss”; in test [1] (α-GC followed one week later with PSII (FIG. 6e)), “no weight loss was observed”. The Anti-PSII titers result in the test on PSII is on record as “could not be detected”.
